Source: patent US9029400B2, “5-oxoisoxazoles as inhibitors of lipases and phospholipases” (Sanofi, priority 2007, dated 2015)

Molecular target: T1, endothelial lipase (EL) (Homo sapiens, UniProt Q9Y5X9)
T1 construct: made in house; host or cells: recombinant CHO or HEK293 cell lines; concentrated conditioned medium used as enzyme solution
T1 sequence (Q9Y5X9 21-500): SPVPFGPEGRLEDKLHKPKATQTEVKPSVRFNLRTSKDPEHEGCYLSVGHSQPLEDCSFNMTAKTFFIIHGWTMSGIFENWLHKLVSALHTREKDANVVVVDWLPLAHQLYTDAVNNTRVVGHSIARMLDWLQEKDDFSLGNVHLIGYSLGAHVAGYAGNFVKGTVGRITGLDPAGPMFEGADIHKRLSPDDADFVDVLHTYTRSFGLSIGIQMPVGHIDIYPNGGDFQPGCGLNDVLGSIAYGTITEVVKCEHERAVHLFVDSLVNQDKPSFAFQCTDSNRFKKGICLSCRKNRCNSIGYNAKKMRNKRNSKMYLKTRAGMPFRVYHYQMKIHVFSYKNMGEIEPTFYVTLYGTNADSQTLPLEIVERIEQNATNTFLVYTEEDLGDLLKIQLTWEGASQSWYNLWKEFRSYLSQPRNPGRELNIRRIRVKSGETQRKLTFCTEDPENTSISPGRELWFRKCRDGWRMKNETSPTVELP
Test: EL inhibition assay (endothelial lipase activity, fluorescent Bodipy phospholipid substrate)
Type: biochemical
Conditions: 37° C., 90 minutes; enzyme from conditioned medium of recombinant cell lines (CHO, HEK293)
Procedure: The activity of the compounds of the invention of the formula I was tested in the following enzyme assay system: […]
EL is released as secretory protein in high concentration into cell culture medium (conditioned medium) by recombinant cell lines (CHO, HEK293). This is employed as enzyme solution after concentration.
The phospholipase-specific substrate 1,2-bis(4,4-difluoro-5,7-dimethyl-4-bora-3a,4a-diaza-s-indacene-3-undecanoyl)-sn-glycero-3-phosphocholine, (manufacturer Molecular Probes) is used to characterize the enzymatic activity of endothelial lipase and the effect of inhibitors. Hydrolysis of the A1 ester linkage of this phospholipid by the enzyme liberates a fatty acid labeled by the fluorescent dye Bodipy which can be detected after separation by thin-layer chromatography on an HPTLC plate (silica gel 60, Merck) or directly in the reaction vessel by measuring the fluorescence.
The substrate solution is prepared by dissolving 100 μg of 1,2-bis(4,4-difluoro-5,7-dimethyl-4-bora-3a,4a-diaza-s-indacene-3-undecanoyl)-sn-glycero-3-phosphocholine (manufacturer Molecular Probes) in 100 μl DMSO and taking it up in 2.4 mg of tripalmitin (Sigma) in 393 μl chloroform which contains 20 mg/ml DOP-choline (1,2-dioleoyl-sn-glycero-3-phosphocholine). 39.3 μl of this lipid mixture are transferred into a fresh reaction vessel and the solvent is evaporated. The lipid mixture is dissolved in 4 ml of 200 mM TRIS-HCl, 150 mM sodium chloride, pH=7.4, by sonication twice. The subsequent enzymic reaction takes place at 37° C. for 90 minutes. For this purpose, 20 μl of the substrate solution are incubated with 2 μl of inhibitor of appropriate concentration (dissolved in 10% DMSO, 10% strength DMSO solution is used as control) and 2 μl of enzyme solution (conditioned medium). Then 4 μl of the assay mixture are loaded onto an HPTLC plate (silica gel 60, Merck), and the liberated fluorescent dye is separated for detection with an eluent (diethyl ether:petroleum benzine:acetic acid [78:22:1]). After evaporation of the eluent, the plate is read in a fluorescence scanner. An increased release of the fluorescent dye in the uninhibited reaction is to be observed as a measure of the enzymic activity.
The enzymatic activity is reduced as a function of the inhibitor concentration used, and the inhibitor concentration at which a half-maximum enzymic activity is observed is called IC50.

**Q.** How did the IC50 turn out when `Cc1ccccc1CNC(=O)n1oc(=O)c(C(C)C)c1C` [Example 6] was run?
**A.** 0.028 µM

**Q.** How did the IC50 turn out when `Cc1c(C)n(C(=O)NC2CCc3ccccc32)oc1=O` (stereo not drawn) [Example 31] was run?
**A.** 0.1 µM

**Q.** Which IC50 does the source give for `Cc1ccc(CNC(=O)n2oc(=O)c3c2CCCC3)cc1C` [Example 25] here?
**A.** 0.009 µM

**Q.** Which IC50 does the source give for `Cc1ccc(CNC(=O)n2oc(=O)c3c2CCCC3)cc1` [Example 26] here?
**A.** 0.035 µM

**Q.** Which IC50 does the source give for `Cc1cccc(CNC(=O)n2oc(=O)c3c2CCCC3)c1` [Example 40] here?
**A.** 0.053 µM

**Q.** Which IC50 does the source give for `Cc1cccc(C)c1CNC(=O)n1oc(=O)c2c1CCCC2` [Example 39] here?
**A.** 0.001 µM

**Q.** How did the IC50 turn out when `Cc1ccc(CNC(=O)n2oc(=O)c(C(C)C)c2C)cc1C` [Example 16] was run?
**A.** 0.004 µM

**Q.** With `Cc1c(C(C)C)c(=O)on1C(=O)NC1CCc2ccccc21` (stereo not drawn) [Example 10] as the compound, how does the IC50 read?
**A.** 0.06 µM

**Q.** For `Cc1ccc(CNC(=O)n2oc(=O)c(C(C)C)c2C)cc1` [Example 7], which IC50 is on record?
**A.** 0.9 µM

**Q.** How did the IC50 turn out when `Cc1c(C(C)C)c(=O)on1C(=O)NCc1cccs1` [Example 18] was run?
**A.** 14.1 µM

**Q.** For `Cc1c(C(C)C)c(=O)on1C(=O)NCc1cc2ccccc2s1` [Example 8], which IC50 is on record?
**A.** 3.2 µM

**Q.** With `O=C(N[C@H]1CCc2ccccc21)n1oc(=O)cc1C1CC1` [Example 44] as the compound, how does the IC50 read?
**A.** 0.5 µM
